According to ChEMBL document CHEMBL3808366, “Facile and efficient synthesis and biological evaluation of 4-anilinoquinazoline derivatives as EGFR inhibitors” (Bioorg Med Chem Lett, 2016):
pIC50: −log10 of the molar value. Calls of active or inactive are those of the source. The calls are words filed in the database; no cut-off is given here.

Legend:
[1] = tested on: NCI-H1975; assay: Antiproliferative activity against human NCI-H1975 cells over expressing EGFR after 48 hrs by MTT assay; assay type: functional, cell-based; conditions: NCI-H1975, 48 h
[2] = tested on: HepG2; assay: Antiproliferative activity against human HepG2 cells over expressing EGFR after 48 hrs by MTT assay; assay type: functional, cell-based; conditions: HepG2, 48 h
[3] = Antiproliferative activity against human SMMC7721 cells over expressing EGFR after 48 hrs by MTT assay; assay type: functional, cell-based; conditions: SMMC-7721, 48 h
[4] = molecular target: Epidermal growth factor receptor (Homo sapiens) (UniProt P00533); conditions: NCI-H1975, at 1 µM
Chain of Epidermal growth factor receptor (Homo sapiens) (P00533 whole entry): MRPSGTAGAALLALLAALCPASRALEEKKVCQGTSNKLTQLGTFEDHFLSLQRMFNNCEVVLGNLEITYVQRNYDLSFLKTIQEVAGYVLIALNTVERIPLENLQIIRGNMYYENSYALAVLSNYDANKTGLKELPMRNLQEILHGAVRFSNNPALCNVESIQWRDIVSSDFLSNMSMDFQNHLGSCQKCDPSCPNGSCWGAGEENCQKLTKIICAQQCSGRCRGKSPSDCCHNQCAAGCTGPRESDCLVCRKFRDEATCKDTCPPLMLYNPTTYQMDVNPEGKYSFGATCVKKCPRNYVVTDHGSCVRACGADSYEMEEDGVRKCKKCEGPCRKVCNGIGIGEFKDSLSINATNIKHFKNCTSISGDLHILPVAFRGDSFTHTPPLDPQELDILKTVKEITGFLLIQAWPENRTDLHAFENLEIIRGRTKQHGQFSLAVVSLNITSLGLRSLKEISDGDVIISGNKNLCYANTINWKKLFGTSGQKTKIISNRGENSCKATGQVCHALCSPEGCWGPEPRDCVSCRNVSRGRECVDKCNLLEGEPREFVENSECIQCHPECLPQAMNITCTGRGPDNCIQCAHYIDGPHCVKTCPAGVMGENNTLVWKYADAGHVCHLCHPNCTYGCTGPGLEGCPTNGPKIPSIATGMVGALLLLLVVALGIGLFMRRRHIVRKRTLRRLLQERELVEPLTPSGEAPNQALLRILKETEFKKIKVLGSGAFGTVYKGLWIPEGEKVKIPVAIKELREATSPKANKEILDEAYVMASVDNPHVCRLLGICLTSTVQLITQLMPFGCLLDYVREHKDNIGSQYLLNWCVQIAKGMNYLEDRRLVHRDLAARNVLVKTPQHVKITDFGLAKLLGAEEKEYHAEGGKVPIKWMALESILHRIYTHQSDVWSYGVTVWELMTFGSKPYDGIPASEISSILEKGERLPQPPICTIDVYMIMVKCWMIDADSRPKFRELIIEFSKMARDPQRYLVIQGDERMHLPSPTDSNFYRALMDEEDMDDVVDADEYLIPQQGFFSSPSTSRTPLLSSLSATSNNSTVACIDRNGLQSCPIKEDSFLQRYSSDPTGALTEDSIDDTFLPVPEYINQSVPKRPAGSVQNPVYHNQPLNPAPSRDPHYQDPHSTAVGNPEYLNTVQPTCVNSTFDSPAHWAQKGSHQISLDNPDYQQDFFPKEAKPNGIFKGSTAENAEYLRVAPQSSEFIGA
Description: Inhibition of EGFR autophosphorylation at Tyr1068 site in human NCI-H1975 cells at 1 uM by western blotting analysis

Row | pIC50 [1] | pIC50 [2] | inhibition [4] | Compound | pIC50 [3]
1 | 4.50 | 4.62 | – | COc1cccc(Nc2ncnc3ccccc23)c1 | 4.81
2 | 6.17 | 4.83 | – | CNCCC(=O)Nc1ccc2ncnc(Nc3ccc(F)c(Cl)c3)c2c1 | 4.68
3 | 4.97 | 4.16 | – | Fc1ccccc1Nc1ncnc2ccccc12 | 4.03
4 | 5.12 | 4.88 | – | Fc1cccc(Nc2ncnc3ccccc23)c1 | 4.82
5 | 6.06 | 5.49 | – | Cc1nc(Nc2ccc(F)c(Cl)c2)c2cc(NC(=O)CCN3CCCCC3)ccc2n1 | 5.55
6 | 4.63 | 4.54 | – | Fc1ccc(Nc2ncnc3ccccc23)cc1 | 4.66
7 | 5.52 | 4.79 | – | O=C(CCN1CCOCC1)Nc1ccc2ncnc(Nc3ccc(F)c(Cl)c3)c2c1 | 4.71
8 | 6.96 | 5.73 | Active | Cc1nc(Nc2ccc(F)c(Cl)c2)c2cc(NC(=O)CCN(C)C)ccc2n1 | 5.98
9 | 6.44 | 5.03 | Active | CN(C)CCC(=O)Nc1ccc2ncnc(Nc3ccc(F)c(Cl)c3)c2c1 | 5.02
10 | 5.94 | 5.70 | – | Cc1nc(Nc2ccc(F)c(Cl)c2)c2cc(NC(=O)CCN3CCOCC3)ccc2n1 | 5.49
11 | 4.98 | 4.63 | – | Clc1cccc(Nc2ncnc3ccccc23)c1 | 4.66
12 | 4.98 | 4.10 | – | Brc1cccc(Nc2ncnc3ccccc23)c1 | 4.61
13 | 5.73 | 5.07 | – | O=C(CCN1CCCCC1)Nc1ccc2ncnc(Nc3ccc(F)c(Cl)c3)c2c1 | 4.90
14 | 6.32 | 5.95 | – | CNCCC(=O)Nc1ccc2nc(C)nc(Nc3ccc(F)c(Cl)c3)c2c1 | 5.70
15 | 5.35 | < 4.00 | – | Fc1ccc(Nc2ncnc3ccccc23)cc1Cl | 4.30
16 | 4.45 | 4.18 | – | c1ccc(Nc2ncnc3ccccc23)cc1 | 4.45
